Legend:
[1] = tested on: p53 transcriptional activity; assay: p53-responsive luciferase reporter bioluminescence imaging; format: cell-based, human; conditions: for 1/slope of dose-dependent p53-responsive reporter bioluminescence: 24 hr
Description: Functional cell-based screening for small molecules that can increase p53-transcriptional activity was performed using noninvasive bioluminescence imaging in human colorectal cancer cells (SW480, DLD-1, HCT116 and p53-null HCT116) that stably express a p53-regulated reporter, as previously described (Wang W, et al., Proc Natl Acad Sci USA 2006; 103: 11003-8). Cells were seeded in 96-well plates at a density of 5×10^4 cells/well. […] Cells treated with 5 μM of Prodigiosin were used as a positive control, and DMSO treatment was used as a negative control in each screened plate. The bioluminescence in each treatment was normalized to DMSO treatment.
SW480, DLD-1, HCT116 and p53-null HCT116 cells which stably express a p53-regulated luciferase reporter were generated as previously described (Wang et al., 2006, Proc. Natl. Acad. Sci. USA 103:11003-11008; Wang et al., 2003, Cancer Biol. Ther. 2:196-202). MRCS, Wi38, Hop92 and RXF393 were obtained from ATCC and cultured as recommended. Cells were regularly authenticated by bioluminescence, growth and morphological observation.

DLD-1 cells = assay: CellTiter-Glo cell viability, DLD-1 with Ad-p73 or p73 knock-down; format: cell-based, human; conditions: for Combination index (CI): DLD-1
Description: Cells at a concentration of 5000 cells/well in 96-well plates were treated with NSC59984 or other drugs. At seventy-two hours after treatment, cells were mixed with an equal volume of CellTiter-Glo reagents (Promega, Madison, Wis.), following the manufacturer's protocol, and bioluminescence imaging was measured using the IVIS imager.
Cells were infected with retrovirus containing the pSIREN-REtrpcQ retroviral vector recombinant with TAp73 RNAi. Cells were cultured with blasticidin for several weeks, and blasticidin-resistant clones were selected. Knock-down of p73 was detected by measuring p73 protein levels by Western blot with anti-p73 antibody (Bethyl laboratories Inc. USA).
Cells were infected with an adenovirus that expresses p73-beta (Ad-p73) or wild type p53 (Ad-p53) and cultured for 24 hr, as previously described (Huang C, et al., Cancer Biol Ther 2009; 8: 2186-93). Then, the infected cells were cultured in fresh medium and subjected to different treatments.
All results were obtained from triplicate experiments, unless other indicated. Statistical analyses were performed using PRISM4 Software (GraphPad Software, Inc., San Diego, Calif., USA), ANOVA and Student's t-test. Statistical significances were determined by p<0.05. Combination indices were calculated using the Chou-Talalay method with CalcuSyn software (biosoft).

RXF393 cells = assay: Flow cytometry sub-G1 DNA content; format: cell-based, human; conditions: 50 μM, 8 hours
Description: (§1) Cells were treated with NSC59984 or other drugs. Seventy-two hours after treatment, the cells were fixed with ethanol and stained with Propidium Iodide (PI). The samples were then subjected to analysis by an Epics Elite flow cytometer to measure the DNA content of the stained cells.

cancer cells = assay: Flow cytometry sub-G1 DNA content; format: cell-based, human; conditions: 72 hr
Description: as §1

normal cells = assay: Flow cytometry sub-G1 DNA content; format: cell-based, human; conditions: 25 μM, 72 hr
Description: as §1

Hop92 and SW480 cells = assay: Flow cytometry sub-G1 DNA content; format: cell-based, human; conditions: 25 μM and 50 μM, 8 hours
Description: Cells were treated with NSC59984 or other drugs. […] The samples were then subjected to analysis by an Epics Elite flow cytometer to measure the DNA content of the stained cells.

wild-type p53 = assay: Wild-type p53 protein level Western blot; format: cell-based, human; conditions: 8 hr
Description: (§2) Proteins were extracted from cells and electrophoresed through 4-12% SDS-PAGE then transferred to PVDF membranes. The primary antibodies indicated in the figures were incubated with the transferred PVDF in blocking buffer at 4° C. overnight. Antibody binding was detected on PVDF with appropriate IRDye-secondary antibodies (LI-COR Biosciences, USA) by the ODYSSEY infrared imaging system.

MDM2 = assay: Phosphorylation Western blot; format: cell-based, human; conditions: SW480 cells
Description: as §2

p73 = biological target: T1, p73 (Homo sapiens, UniProt O15350); assay: p73 protein level Western blot; format: cell-based; conditions: mutant p53-expressing tumor cells, 8 hours
T1 construct: endogenous in cells
Description: as §2

DLD-1 xenograft tumors = assay: In vivo anti-tumor assay, xenograft; design: species or system mice; conditions: 45 mg/kg i.p. every 5 days
Description: (§3) CRL nude mice (female, 4-6 weeks old) were inoculated s.c. in the opposite flanks with 5 million DLD-1 or p73 knock-down DLD-1 cells in an equal volume of martrigel. Treatment with NSC59984 (i.p. injection) was initiated when the tumor masses reached a size of 3-5 mm. NSC59984 (45 mg/kg) was injected by i.p. route every 5 days. Fifteen days after treatment, the mice were euthanized using an institutional animal care and use committee-approved animal protocol.

[2] = tested on: p73 knock-down DLD-1 xenograft tumors; assay: In vivo anti-tumor assay, xenograft; design: species or system mice; conditions: 45 mg/kg i.p. every 5 days
Description: as §3

[3] = Body weight and toxicity in xenograft mice; format: in vivo; conditions: 45 mg/kg i.p. every 5 days
Description: as §3

T1 sequence (O15350 whole entry): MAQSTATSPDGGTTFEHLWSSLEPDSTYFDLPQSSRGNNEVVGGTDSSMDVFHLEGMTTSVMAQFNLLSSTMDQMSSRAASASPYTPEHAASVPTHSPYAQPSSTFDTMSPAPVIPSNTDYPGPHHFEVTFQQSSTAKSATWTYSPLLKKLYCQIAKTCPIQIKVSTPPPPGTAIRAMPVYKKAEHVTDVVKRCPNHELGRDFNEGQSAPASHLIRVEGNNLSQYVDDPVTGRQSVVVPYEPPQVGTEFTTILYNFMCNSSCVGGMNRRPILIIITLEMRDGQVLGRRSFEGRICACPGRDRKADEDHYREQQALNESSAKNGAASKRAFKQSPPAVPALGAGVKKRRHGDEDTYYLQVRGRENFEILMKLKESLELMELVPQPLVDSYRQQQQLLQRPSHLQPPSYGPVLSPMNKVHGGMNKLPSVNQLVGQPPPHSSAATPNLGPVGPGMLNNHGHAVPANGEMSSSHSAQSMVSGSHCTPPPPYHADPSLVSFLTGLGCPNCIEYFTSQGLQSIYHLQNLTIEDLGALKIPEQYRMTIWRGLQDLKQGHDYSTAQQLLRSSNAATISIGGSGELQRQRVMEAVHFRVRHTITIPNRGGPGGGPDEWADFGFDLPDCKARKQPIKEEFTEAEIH

SMILES: CN1CCN(C(=O)/C=C/c2ccc([N+](=O)[O-])o2)CC1 [NSC59984, (E)-1-(4-methylpiperazin-1-yl)-3-(5-nitrofuran-2-yl)prop-2-en-1-one]
- 1/slope of dose-dependent p53-responsive reporter bioluminescence ([1]; DLD-1 (mutant p53 S241F)): 29.75
- 1/slope of dose-dependent p53-responsive reporter bioluminescence ([1]; SW480 (mutant p53 R273H, P309S)): 31.37
- p53-responsive bioluminescence ([1]; SW480 cells, 10 μM): increases
- 1/slope of dose-dependent p53-responsive reporter bioluminescence ([1]; p53-null HCT116 cells): 102.9
- p53-responsive bioluminescence ([1]; p53-null HCT116 cells, increasing doses): slightly induced
- p53-responsive bioluminescence ([1]; p73-overexpressing (Ad-p73) SW480 cells vs wild-type p53-overexpressing SW480 cells, 8 hr): significantly increased
- NSC59984-induced p53-responsive bioluminescence ([1]; p73 knock-down SW480 cells, 8 hr): abrogated
- 1/slope of dose-dependent p53-responsive reporter bioluminescence ([1]; wild-type p53-expressing HCT116 cells): 328.4
- p53-responsive bioluminescence ([1]; wild-type p53-expressing HCT116 cells, increasing doses): no significant increase
- Combination index (CI) (DLD-1 cells; Ad-P73 dilution 1:1k, NSC59984 12 μM): 0.273
- Combination index (CI) (DLD-1 cells; Ad-P73 dilution 1:1k, NSC59984 25 μM): 0.12
- Combination index (CI) (DLD-1 cells; Ad-P73 dilution 1:1k, NSC59984 50 μM): 0.033
- Combination index (CI) (DLD-1 cells; Ad-P73 dilution 1:2k, NSC59984 12 μM): 0.357
- Combination index (CI) (DLD-1 cells; Ad-P73 dilution 1:2k, NSC59984 25 μM): 0.127
- Combination index (CI) (DLD-1 cells; Ad-P73 dilution 1:2k, NSC59984 50 μM): 0.039
- Combination index (CI) (DLD-1 cells; Ad-P73 dilution 1:4k, NSC59984 12 μM): 0.303
- Combination index (CI) (DLD-1 cells; Ad-P73 dilution 1:4k, NSC59984 25 μM): 0.121
- Combination index (CI) (DLD-1 cells; Ad-P73 dilution 1:4k, NSC59984 50 μM): 0.037
- Combination index (CI) (DLD-1 cells; Ad-P73 dilution 1:8k, NSC59984 12 μM): 0.319
- Combination index (CI) (DLD-1 cells; Ad-P73 dilution 1:8k, NSC59984 25 μM): 0.115
- Combination index (CI) (DLD-1 cells; Ad-P73 dilution 1:8k, NSC59984 50 μM): 0.036
- Combination index (CI) (DLD-1 cells; Ad-P73 dilution 1:16k, NSC59984 12 μM): 0.239
- Combination index (CI) (DLD-1 cells; Ad-P73 dilution 1:16k, NSC59984 25 μM): 0.098
- Combination index (CI) (DLD-1 cells; Ad-P73 dilution 1:16k, NSC59984 50 μM): 0.027
- Combination index (CI) (DLD-1 cells; Ad-P73 dilution 1:32k, NSC59984 12 μM): 0.636
- Combination index (CI) (DLD-1 cells; Ad-P73 dilution 1:32k, NSC59984 25 μM): 0.282
- Combination index (CI) (DLD-1 cells; Ad-P73 dilution 1:32k, NSC59984 50 μM): 0.078
- cell viability, combination with exogenous p73 (DLD-1 cells; DLD-1 cells infected with Ad-p73): synergized
- cell viability (DLD-1 cells; p73 knock-down DLD-1 cells compared with DLD-1 cells, 72 hr): higher
- Sub-G1 DNA content (RXF393 cells): 8.7%
- sub-G1 DNA content (cancer cells; 25 μM): 26-56%
- cells with sub-G1 content (cancer cells; 50 μM): 55-93%
- sub-G1 DNA content increase (normal cells): not in normal cells
- subG1 DNA-content (Hop92 and SW480 cells): nor subG1 DNA-content was increased
- wild-type p53 protein (wild-type p53; HCT116 cancer cells, 25 and 50 μM): up-regulated
- wild-type p53 protein (wild-type p53; MRC-5 normal cells, 50 μM): up-regulated
- phosphorylation of MDM2 (MDM2): phosphorylated at Ser166
- p73 protein levels (p73): not found to be increased
- xenograft tumor growth (DLD-1 xenograft tumors; compared to DMSO control): significantly repressed
- tumor weight reduced by (DLD-1 xenograft tumors; day 15): 34%
- tumor growth suppression [2]: not observed
- tumor weight reduced by ([2]; day 15): 18%
- mouse body weights [3]: did not cause an obvious change
- toxic effect in mice ([3]; tested dose): no overt toxic effect

Source: patent US10322123B2, “Compound for anti-cancer therapy that acts by targeting GOF mutant P53 and stimulates P73 to restore the P53 pathway signaling” (The Penn State Research Foundation, priority 2014, dated 2019)
